{
  "source": "patent US9081736B2",
  "about": "“Modeling of mPGES-1 three-dimensional structures: applications in drug design and discovery” (The University of Kentucky Research Foundation, priority 2007, dated 2015)",
  "key": {"mPGES-1": {"target": "T1, mPGES-1 (Homo sapiens, UniProt O14684)", "T1 sequence (O14684 1-152)": "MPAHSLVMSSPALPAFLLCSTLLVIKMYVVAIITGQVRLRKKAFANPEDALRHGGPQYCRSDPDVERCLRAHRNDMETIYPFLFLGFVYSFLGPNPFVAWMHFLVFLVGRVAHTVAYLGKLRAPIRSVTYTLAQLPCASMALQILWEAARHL", "details": "background statement; not selective for mPGES-1; cited from earlier work"}, "mPGES-1 Q36E mutant": {"target": "T2, mPGES-1 Q36E mutant (Homo sapiens, UniProt O14684, Q36E)", "T2 sequence (O14684 1-152 Q36E)": "T1 sequence (O14684 1-152) with Q36E", "experiment": "Activity assay, saturation kinetics for PGH2, Q36E mutant", "type": "biochemical", "details": "2.5 mM GSH, 1-500 μM PGH2, errors expected to be very large, read-out: Experimental KM, this work", "protocol": "(§1) Expression and Preparation for the Membrane Fraction of mPGES-1 and its Mutants in E. coli: The wild-type mPGES-1 and its mutant plasmids from XLI-Blue were transformed into M15 E. coli cells. Cells were grown in 500 ml TB media containing 100 μg/ml ampicillin and 25 μg/ml kanamycin at 37° C. with shaking at 270 rpm until OD reached 0.8. IPTG was added to a final concentration of 2 mM and cells were allowed to grow for additional 3 hours at 37° C. Cells were then harvested by centrifugation at 5000 g for 15 min at 4° C. […] The cells were broken by sonication, and then the cell lysate was cleared by centrifugation at 12,500 g for 10 min. […] Total protein concentration of the membrane fraction was determined by coomassie protein assay according to the manufacture's instruction (Bio-Rad) with BSA as a standard.\n(§2) The reaction contents were 1:2500 diluted, from which 50 μl aliquot was used for quantification of […] concentration by EIA assay. […] The KM values of wild-type mPGES-1 and its mutants were calculated by using the GraphPad Prism 4.01 program."}, "mPGES-1 Q134E mutant": {"target": "T3, mPGES-1 Q134E mutant (Homo sapiens, UniProt O14684, Q134E)", "T3 sequence (O14684 1-152 Q134E)": "T1 sequence (O14684 1-152) with Q134E", "experiment": "Activity assay, saturation kinetics for PGH2, Q134E mutant", "type": "biochemical", "details": "2.5 mM GSH, 1-500 μM PGH2, errors expected to be very large, read-out: Experimental KM, this work", "protocol": "as §1, §2"}, "wild-type mPGES-1": {"target": "T4, wild-type mPGES-1 (Homo sapiens, UniProt O14684)", "T4 sequence (O14684 1-152)": "T1 sequence (O14684 1-152)", "experiment": "Activity assay, saturation kinetics for PGH2, wild-type mPGES-1", "type": "biochemical", "design": "The specific oligonucleotide primers to full length of mPGES-1 were synthesized; made in house; host or cells: E. coli M15 (membrane fraction)", "details": "2.5 mM GSH, 1-500 μM PGH2, on ice, read-out: Experimental KM, this work", "protocol": "as §1, §2"}},
  "note": "Substitutions are numbered along the chain they refer to.",
  "data": [
    {"smiles": "CS(=O)(=O)Nc1ccc([N+](=O)[O-])cc1OC1CCCCC1", "note": "[NS-398]", "values": [
      {"measurement": "Ability to inhibit mPGES-1", "setting": "mPGES-1", "result": "able to inhibit mPGES-1"}
    ]},
    {"smiles": "CCCCC[C@H](O)/C=C/[C@@H]1[C@@H](C/C=C\\CCCC(=O)O)[C@@H]2C[C@H]1OO2", "note": "[PGH2, prostaglandin H2]", "values": [
      {"measurement": "Km", "setting": "mPGES-1 Q36E mutant", "result": "~1610", "unit": "µM"},
      {"measurement": "Km", "setting": "mPGES-1 Q134E mutant", "result": "~734", "unit": "µM"},
      {"measurement": "Km", "setting": "wild-type mPGES-1", "result": 130, "unit": "µM"}
    ]}
  ]
}
